Columns and labels:
Assay type in all cases: in vivo, rat
[1] = tested on: Triton WR 1339 induced dyslipidemia in Albino rats (Sprague Dawley strain); assay: Screening of hypolipidemic activity, Triton WR 1339 induced dyslipidemia model (Example 18)
Experimental: Twenty four male Albino rats (Sprague Dawley strain) weighing approximate 250-300 gm were selected for the study. The animals were kept in the animal house maintained at temp 24±2° C., 65% relative humidity and 12 hr light/dark cycle. The rats were acclimatized for two weeks and during this period they had access to standard pellet diet and water ad libitum. After two weeks of acclimatization, all the rats were fasted overnight before injecting Triton WR 1339 (Tyloxapol) and administration of test extracts/standard. The animals were divided into four groups Following treatment was given to overnight fasted rats: • Group I: Normal control (vehicle only). • Group II: Triton WR 1339 (300 mg/kg, intraperitoneal). • Group III: Triton WR 1339 (300 mg/kg, intraperitoneal) followed by amla seed extract prepare as per example 1 (10 mg/kg, per oral). • Group IV: Triton WR 1339 (300 mg/kg, intraperitoneal) followed by Atorvastatin (10 mg/kg, per oral).
(§1) The animals were deprived of food for next 24 hours but had free access to water ad libitum. After 24 hour of drug treatment 2 ml blood samples were collected from the retro orbital plexus. The blood was allowed to clot and then centrifuged at 3000 rpm for 10 min and the serum was carefully drawn and collected into separate tubes. The serum was analyzed for total cholesterol, triglycerides, high density lipoproteins (HDL), low density lipoproteins (LDL) and very low density lipoproteins (VLDL) levels using auto-analyzer.

[2] = tested on: Triton WR 1339 induced dyslipidemia in Albino rats (Sprague Dawley strain); assay: Hypolipidemic activity in different doses, Triton WR 1339 induced dyslipidemia model (Example 19)
Experimental: Sixty male Albino rats (Sprague Dawley strain) weighing approximate 250-300 gm were selected for the study. The animals were kept in the animal house maintained at temp 24±2° C., 65% relative humidity and 12 hr light/dark cycle. The rats were acclimatized for two weeks and during this period they had access to standard pellet diet and water ad libitum. After two weeks of acclimatization, all the rats were fasted overnight before injecting Triton WR 1339 (Tyloxapol) and administration of test extracts/standard. The animals were divided into ten groups. Following treatment was given to overnight fasted rats: • Group I: Normal control (vehicle only). • Group II: Triton WR 1339 (300 mg/kg, intraperitoneal). • Group III: Triton WR 1339 (300 mg/kg, intraperitoneal) followed by amla seed extract prepare as per example 1 (10 mg/kg, per oral). • Group IV: Triton WR 1339 (300 mg/kg, intraperitoneal) followed by amla seed extract prepare as per example 1 (7.5 mg/kg, per oral). • Group V: Triton WR 1339 (300 mg/kg, intraperitoneal) followed by amla seed extract prepare as per example 1 (5 mg/kg, per oral). • Group VI: Triton WR 1339 (300 mg/kg, intraperitoneal) followed by amla seed extract prepare as per example 1 (2.5 mg/kg, per oral). • Group VII: Triton WR 1339 (300 mg/kg, intraperitoneal) followed by amla seed extract prepare as per example 1 (2 mg/kg, per oral). • Group VIII: Triton WR 1339 (300 mg/kg, intraperitoneal) followed by amla seed extract prepare as per example 1 (1 mg/kg, per oral). • Group IX: Triton WR 1339 (300 mg/kg, intraperitoneal) followed by amla seed extract prepare as per example 1 (0.5 mg/kg, per oral). • Group X: Triton WR 1339 (300 mg/kg, intraperitoneal) followed by atorvastatin (10 mg/kg. per oral).
as §1

[3] = tested on: Triton WR 1339 induced dyslipidemia in Albino rats (Sprague Dawley strain); assay: Hypolipidemic activity of product 3 compared with amla seed powder, Triton WR 1339 model (Example 26)
Experimental: Twenty eight male Albino rats (Sprague Dawley strain) weighing approximately 250-300 gm were selected for the study. The animals were maintained at temperature of 24±2° C., 65% relative humidity and 12 hr light/dark cycle. The rats were acclimatized for two weeks and during this period they had access to standard pellet diet and water ad libitum. After two weeks of acclimatization, all the rats were fasted overnight before injecting Triton WR 1339 (Tyloxapol) and administration of test extracts/standard. The animals were divided into seven groups. Following treatment was given to overnight fasted rats: • Group I: Normal control (vehicle only) • Group II: Triton WR 1339 (300 mg/kg, intraperitoneal) • Group III: Triton WR 1339 (300 mg/kg, intraperitoneal) followed by administering product of amla seed extract (product 3) on the same day of triton administration (0.5 mg/kg, per oral) • Group IV: Triton WR 1339 (300 mg/kg, intraperitoneal) followed by product 2 (50% methanol fraction+80% methanol fraction+water fraction) of amla seed extract on the same day that Triton was administered (0.5 mg/kg, per oral) • Group V: Triton WR 1339 (300 mg/kg, intraperitoneal) followed by product 1 (Hexane fraction) of amla seed extract on the same day that Triton was administered (0.5 mg/kg, per oral) • Group VI: Triton WR 1339 (300 mg/kg, intraperitoneal) followed by powder of dried amla seed prepared as per Example 7 (0.5 mg/kg, per oral). The powder of dried amla seed was administered on the same day as triton was administered. • Group VII: Triton WR 1339 (300 mg/kg, intraperitoneal) followed by atorvastatin administration (10 mg/kg, per oral), on the same day.
The animals were deprived of food for next 24 hours but had free access to water ad libitum. After 24 hours of drug treatment, 2 ml of blood sample was collected from the retro orbital plexus. The blood was allowed to clot and then centrifuged at 3000 rpm for 10 min and the serum was carefully drawn and collected into separate tubes. The serum was analyzed for total cholesterol, triglycerides, high density lipoproteins (HDL), low density lipoproteins (LDL) and very low density lipoproteins (VLDL) levels using auto-analyzer.

[4] = 24 h after Triton i.p. + 10 mg/kg p.o.

CC(C)c1c(C(=O)Nc2ccccc2)c(-c2ccccc2)c(-c2ccc(F)cc2)n1CC[C@@H](O)C[C@@H](O)CC(=O)O [Atorvastatin]
effect on cholesterol and triglyceride level ([1]; 10 mg/kg p.o.): effective in lowering the cholesterol as well as triglyceride level
HDL After [1, 4]: 32.37 mg/dL
LDL After [1, 4]: 77.61 mg/dL
TC After [1, 4]: 131.9 mg/dL
TG After [1, 4]: 109.67 mg/dL
VLDL After [1, 4]: 21.93 mg/dL
HDL Before ([1]; baseline, 10 mg/kg p.o. group): 29.13 mg/dL
LDL Before ([1]; baseline, 10 mg/kg p.o. group): 62.43 mg/dL
TC Before ([1]; baseline, 10 mg/kg p.o. group): 100.4 mg/dL
TG Before ([1]; baseline, 10 mg/kg p.o. group): 44.26 mg/dL
VLDL Before ([1]; baseline, 10 mg/kg p.o. group): 8.85 mg/dL
HDL After [2, 4]: 39.83 mg/dL
LDL After [2, 4]: 60.23 mg/dL
TC After [2, 4]: 120.83 mg/dL
TG After [2, 4]: 103.86 mg/dL
VLDL After [2, 4]: 20.77 mg/dL
effect on cholesterol and triglyceride level ([2]; amla seed extract 0.5 to 10 mg/kg p.o., atorvastatin 10 mg/kg p.o.): effective in lowering the cholesterol as well as triglyceride level
HDL Before ([2]; baseline, 10 mg/kg p.o. group): 31.66 mg/dL
LDL Before ([2]; baseline, 10 mg/kg p.o. group): 47.75 mg/dL
TC Before ([2]; baseline, 10 mg/kg p.o. group): 87.43 mg/dL
TG Before ([2]; baseline, 10 mg/kg p.o. group): 39.9 mg/dL
VLDL Before ([2]; baseline, 10 mg/kg p.o. group): 7.98 mg/dL
HDL After [3, 4]: 38.46 mg/dL
LDL After [3, 4]: 44.30 mg/dL
TC After [3, 4]: 121.21 mg/dL
TG After [3, 4]: 192.25 mg/dL
VLDL After [3, 4]: 44.30 mg/dL
HDL Before ([3]; baseline, 10 mg/kg p.o. group): 35.54 mg/dL
LDL Before ([3]; baseline, 10 mg/kg p.o. group): 58.22 mg/dL
TC Before ([3]; baseline, 10 mg/kg p.o. group): 103.47 mg/dL
TG Before ([3]; baseline, 10 mg/kg p.o. group): 48.54 mg/dL
VLDL Before ([3]; baseline, 10 mg/kg p.o. group): 58.22 mg/dL

Reference: patent publication US10286022B2, “Medicinal composition of extract of seed of emblica officinalis and method of preparing the same” (priority 2013, dated 2019)
